# US12569453B2, “Use of tapinarof for the treatment of atopic dermatitis” (Dermavant Sciences GmbH, priority 2018, dated 2026)
# Tested on: adolescent and adult subjects with AD
# Test: Phase II clinical study in AD: efficacy and subject-reported outcomes
# Assay type: in vivo, human
# Details: for itch reduction in weekly average NRS (median): Week 4; for probability of achieving EASI75 / probability of achieving IGA treatment success: model; for patients with 75% improvement in EASI score: post-hoc analysis
# Text: This was a multicenter (United States, Canada, and Japan), randomized, double-blind (Sponsor-unblind), vehicle-controlled, 6-arm, parallel-group, dose-finding study in adolescent and adult subjects with AD.
# The study consisted of 3 periods: up to 4 weeks screening, 12 weeks double-blind treatment, and 4 weeks post-treatment Follow-up. Study visits occurred at Screening; Baseline; Weeks 1, 2, 4, 8, and 12 during the treatment period; and 2 and 4 weeks after the last application of study treatment (i.e., at Weeks 14 and 16). Additional visits could occur, as needed, to follow-up on any skin reactions or ongoing AEs. A subject's total duration of study participation was approximately 16 to 20 weeks.
# Two concentrations of Tapinarof cream (0.5% and 1%) and a vehicle control were evaluated following application to all AD lesions (except on the scalp) once or twice daily for 12 weeks. There were no planned dose adjustments during the study. It was expected that approximately 270 adolescent and adult subjects with AD would be screened to achieve 228 randomized subjects (1:1:1:1:1:1; N=3 8 for each of the 6 treatment groups) and approximately 204 evaluable subjects overall. At least 30 subjects were to be randomized in Japan to achieve at least 24 evaluable Japanese subjects. To ensure an adequate number of adolescents (aged 12 to 17 years) versus adults were represented in the overall study population, enrollment was limited to approximately 65% of either age group.
# Efficacy was assessed by using a 5-point static Investigator Global Assessment (IGA) (0-4 scale), the Eczema Area and Severity Index (EASI), percent of body surface area (% BSA) involvement, severity of AD signs using a Total Severity Score (TSS), and by subject-reported itch/pruritus severity using a numeric rating scale (NRS) (from the Daily Sign and Symptom Severity Diary). Additional subject-reported outcomes included the expanded Patient-Oriented Eczema Measure (POEM), a Daily Sign and Symptom Severity Diary, and subject impression of severity of eczema symptoms and overall change in severity of eczema symptoms and overall change in itch/pruritus items. There was also an investigator global impression of change item.
# Investigator's Global Assessment: The IGA is a clinical tool for assessing the current state/severity of a subject's AD. It is a static 5-point morphological assessment of overall disease severity, as determined by the investigator, using the clinical characteristics of erythema, infiltration, papulation, oozing, and crusting as guidelines. At each specified time point, the IGA was made without reference to previous scores. Scoring system ranges from 0 (=Clear) to 4 (=Severe).
# Eczema Area and Severity Index: The EASI scoring system is a standard clinical tool for assessing the severity of AD that takes into account the overall severity of erythema, infiltration/papulation, excoriation, and lichenification, as well as the extent of BSA affected with AD. The 4 clinical signs are each graded on a 4-point scale (0 to 3) for each of the 4 specified body regions (head and neck, upper extremities, lower extremities, and trunk). The EASI is a static assessment made without reference to previous scores.
# Body Surface Area: The extent of BSA affected by AD is a general indicator of disease severity and was measured throughout the study. The extent of BSA to which study treatment was applied was also recorded. For the purpose of approximate clinical estimation, the total palmar surface of the palm plus 5 digits was assumed to be approximately equivalent to 1% BSA.
# Total Severity Score: A single target lesion that measured at least 3 cm at Screening and Baseline and was representative of subject disease, but not located on hands, feet or genitalia, was selected at Baseline to assess efficacy in treating a discrete area rather than an overall average of all areas. […]
# [1] = 0.5% BID, Week 8, interim analysis
# [2] = 0.5% QD, Week 8, interim analysis
# [3] = 1% BID, Week 8, interim analysis
# [4] = 1% QD, Week 8, interim analysis
smiles,measurement,setting,value
"CC(C)c1c(O)cc(/C=C/c2ccccc2)cc1O [Tapinarof, 3,5-Dihydroxy-4-isopropyl-trans-stilbene]",EASI75 responders who maintained response from Week 12 to Week 16,0.5% BID,82%
same,difference in probability of achieving EASI75 vs vehicle,0.5% BID,42.6%
same,itch reduction in weekly average NRS (median),"0.5% BID, interim analysis",−53.00%
same,IGA response rate (IGA 0 or 1 and ≥2-grade improvement),[1],35%
same,subjects with 75% reduction in EASI from Baseline,[1],59%
same,difference in probability of IGA response vs vehicle,"0.5% BID, Week 12",22.4%
same,"expanded POEM item 8 (nights woken because of eczema), mean change","0.5% BID, Week 12",−1.3
same,patients with minimum three-point improvement in itch NRS,"0.5% BID, Week 12",33%
same,subjects reporting severity of AD symptoms as very improved,"0.5% BID, Week 12",47%
same,IGA response rate (IGA 0 or 1 and ≥2-grade improvement),"0.5% BID, Week 12, NRI",37%
same,probability of achieving EASI75,"0.5% BID, Week 12",54.2%
same,probability of achieving IGA treatment success,"0.5% BID, Week 12",28.7%
same,difference in probability of achieving EASI75 vs vehicle,0.5% QD,28.9%
same,itch reduction in weekly average NRS (median),"0.5% QD, interim analysis",−53.57%
same,IGA response rate (IGA 0 or 1 and ≥2-grade improvement),[2],40%
same,subjects with 75% reduction in EASI from Baseline,[2],35%
same,difference in probability of IGA response vs vehicle,"0.5% QD, Week 12",15.7%
same,"expanded POEM item 8 (nights woken because of eczema), mean change","0.5% QD, Week 12",−1.2
same,patients with minimum three-point improvement in itch NRS,"0.5% QD, Week 12",29%
same,subjects reporting severity of AD symptoms as very improved,"0.5% QD, Week 12",40%
same,IGA response rate (IGA 0 or 1 and ≥2-grade improvement),"0.5% QD, Week 12, NRI",34%
same,probability of achieving EASI75,"0.5% QD, Week 12",32.6%
same,probability of achieving IGA treatment success,"0.5% QD, Week 12",18.3%
same,proportion of subjects with IGA treatment success,"0.5% QD, Week 12, primary analysis",40%
same,subjects rating pruritus symptoms very improved or moderately improved,"0.5% groups, Week 12",80-81%
same,EASI75 responders who maintained response from Week 12 to Week 16,1% BID,63%
same,difference in probability of achieving EASI75 vs vehicle,1% BID,74.5%
same,itch reduction in weekly average NRS (median),"1% BID, interim analysis",−56.35%
same,IGA response rate (IGA 0 or 1 and ≥2-grade improvement),[3],35%
same,subjects with 75% reduction in EASI from Baseline,[3],45%
same,absolute change in percent BSA affected from baseline (mean),"1% BID, Week 12",11.2
same,difference in probability of IGA response vs vehicle,"1% BID, Week 12",61.5%
same,patients rating itch moderately improved to very improved,"1% BID, Week 12",78%
same,patients with minimum three-point improvement in itch NRS,"1% BID, Week 12",30%
same,reduction in total severity score (mean change),"1% BID, Week 12",5.8
same,subjects reporting severity of AD symptoms as very improved,"1% BID, Week 12",64%
same,IGA response rate (IGA 0 or 1 and ≥2-grade improvement),"1% BID, Week 12, NRI",53%
same,probability of achieving EASI75,"1% BID, Week 12",86.0%
same,probability of achieving IGA treatment success,"1% BID, Week 12",67.7%
same,patients with 75% improvement in EASI score,"1% BID, Week 12",60%
same,EASI75 responders who maintained response from Week 12 to Week 16,1% QD,57%
same,difference in probability of achieving EASI75 vs vehicle,1% QD,77.0%
same,itch reduction in weekly average NRS (median),"1% QD, interim analysis",−57.14%
same,IGA response rate (IGA 0 or 1 and ≥2-grade improvement),[4],74%
same,subjects with 75% reduction in EASI from Baseline,[4],63%
same,absolute change in percent BSA affected from baseline (mean),"1% QD, Week 12",11.6
same,difference in probability of IGA response vs vehicle,"1% QD, Week 12",60.1%
same,patients rating itch moderately improved to very improved,"1% QD, Week 12",86%
same,patients with minimum three-point improvement in itch NRS,"1% QD, Week 12",32%
same,reduction in total severity score (mean change),"1% QD, Week 12",5.5
same,subjects reporting severity of AD symptoms as very improved,"1% QD, Week 12",59%
same,IGA response rate (IGA 0 or 1 and ≥2-grade improvement),"1% QD, Week 12, NRI",46%
same,probability of achieving EASI75,"1% QD, Week 12",80.7%
same,probability of achieving IGA treatment success,"1% QD, Week 12",62.6%
same,patients with 75% improvement in EASI score,"1% QD, Week 12",51%
same,subjects rating pruritus symptoms very improved or moderately improved,"1% groups, Week 12",78-87%
same,subjects with minimum 3-point improvement in itch/pruritus,"Japanese population, 1% QD, Week 4 to Week 12",approximately 70%
same,subjects rating severity of itch very improved or moderately improved,"Tapinarof groups, Week 12",≥ 78%
same,subjects rating severity of eczema symptoms very improved or moderately improved,"active treatment groups, Week 12",> 80%
same,subjects rated by investigators as very improved or moderately improved,"adolescent population, active treatment groups",≥ 90%
